Measured values as given in publication PMC3789257 (Journal of the American Chemical Society, 2012).

Legend:
p53 mutant Y220C [1] = settings: binding to the mutation-induced crevice; cited from earlier work
p53 mutant Y220C [2] = settings: in vitro; cited from earlier work
T-p53-Y220C = T-p53-Y220C (Homo sapiens, UniProt P04637, M133L/N239Y/N268D/V203A/Y220C); test: 1H/15N-HSQC NMR titration; type: binding; settings: 20 °C, 75 μM protein
T-p53C-Y220C = T-p53C-Y220C (Homo sapiens, UniProt P04637, M133L/N239Y/N268D/V203A/Y220C); test: Isothermal titration calorimetry; type: binding
Chain of T-p53C-Y220C (P04637 102-292 limits assumed, stated change not applied): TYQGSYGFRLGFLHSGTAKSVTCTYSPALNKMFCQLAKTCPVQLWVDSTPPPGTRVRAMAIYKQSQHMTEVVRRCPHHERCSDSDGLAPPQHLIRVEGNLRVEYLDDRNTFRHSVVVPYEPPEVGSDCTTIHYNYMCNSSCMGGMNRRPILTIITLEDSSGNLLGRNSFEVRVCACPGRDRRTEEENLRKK

Chain of T-p53-Y220C (P04637 102-292 limits assumed, stated change not applied): as the sequence (P04637 102-292 limits assumed, stated change not applied) above

| Kd (T-p53-Y220C) | Kd (T-p53C-Y220C) | SMILES | Kd (p53 mutant Y220C [1]) | effect on melting temperature of the protein (p53 mutant Y220C [2]) |
| --- | --- | --- | --- | --- |
| – | – | CCn1c2ccccc2c2cc(CNC)ccc21 [PhiKan083] | 150 µM | raises the melting temperature |
| 184 ± 23 µM | 225 µM | CN1CCC(N(C)Cc2cc(I)cc(I)c2O)CC1 [compound 3, 2,4-diiodo-6-((methyl(1-methylpiperidin-4-yl)amino)methyl)phenol] | – | – |
